{"source": "patent US8802439B2", "about": "“Methods for enhancing infectivity of retroviruses” (priority 2009, dated 2014)", "key": {"HIV-1-GFP": {"system": "HIV-1-GFP", "assay": "Infectivity of HIV-1-GFP virions (RT-normalized), GFP fluorescence via FACS", "format": "cell-based", "experimental": "(§1) 293T cells were transfected with HIV-1-GFP, SIV-GFP, bMLV-GFP, and nMLV-GFP proviral constructs, and in each case CMV-VSV-G, in the presence or absence of PiB or excess Pin1 as described above. Released virions were normalized via RT assay (EnzChek® Reverse Transcriptase Assay Kit), and infectivity on naïve TZMb1 cells was analyzed by GFP fluorescence via FACS (% cells infected).\nInfection assays for retrovirus: Single-round infections: CD4^+ TZM-bl 100,000 cells/well/mL were seeded onto 24-well plates 24 hours prior to infection. These cells were infected in quadruplicate to 24-well plates. Infectivity was scored using an enzymatic galactosidase activity assay. Specifically, infected TZM-bl cells were washed and lysed, and 20 μl of lysate was transferred to a 96-well plate for detecting β-galactosidase activity. 100 μl of reaction buffer Galacton-Star substrate (Applied Biosystems, Bedford, Mass.), diluted 1:50, was added to 20 μl of lysate, and the light emission was measured over 1 second in a microplate luminometer after 30 minutes incubation. […] Replication was monitored by p24 ELISA. […] Viruses were used to infect in duplicate wells, incubated for 48 hours, washed with PBS, trypsinized, fixed in 1% formaldehyde and subsequently analyzed by fluorescence-activated cell sorting (FACS) for percentage cells infected.\nWe next asked whether Pin1 influences the infectivity of other retroviruses such as SIV, bMLV and nMLV. […] However, unlike previous experiments, virions were normalized via RT assay and infectivity in target cells was analyzed by GFP fluorescence via FACS. […] Note that the observed effect of Pin1 on HIV-1 infectivity using a different means of normalizing viruses (reverse transcriptase activity vs. p24 capsid) and a different means of quantifying infectivity (GFP), agrees with our previous findings above.\nWe further examined whether blocking Pin1 in producer cells can enhance the infectivity of retroviruses in different primate target cells. […] Infectivity was analyzed by GFP fluorescence via FACS. […]"}, "SIV-GFP": {"system": "SIV-GFP", "assay": "Infectivity of SIV-GFP virions (RT-normalized), GFP fluorescence via FACS", "format": "cell-based", "experimental": "as §1\nInfection assays for retrovirus: Single-round infections: CD4^+ TZM-bl 100,000 cells/well/mL were seeded onto 24-well plates 24 hours prior to infection. These cells were infected in quadruplicate to 24-well plates. Infectivity was scored using an enzymatic galactosidase activity assay. Specifically, infected TZM-bl cells were washed and lysed, and 20 μl of lysate was transferred to a 96-well plate for detecting β-galactosidase activity. 100 μl of reaction buffer Galacton-Star substrate (Applied Biosystems, Bedford, Mass.), diluted 1:50, was added to 20 μl of lysate, and the light emission was measured over 1 second in a microplate luminometer after 30 minutes incubation. For human PBMC infections, cells were exposed to 10 ng of wild-type virus for 6 hours, washed, and split into two flasks: one with 10 μM PiB added on day 0 and 3, and one without PiB. Replication was monitored by p24 ELISA. For measuring infectivity of GFP-virus, 50,000 TZMb1, sMAGI, OMK, Vero, BSC-1 and CV-1 cells/well/mL were seeded onto 6-well plates respectively 24 hours prior to infection. Viruses were used to infect in duplicate wells, incubated for 48 hours, washed with PBS, trypsinized, fixed in 1% formaldehyde and subsequently analyzed by fluorescence-activated cell sorting (FACS) for percentage cells infected.\n[…]. In brief, 293T cells were transfected with a SIV-GFP (Mac293), a CMV driven plasmid encoding VSV-G envelope protein alone, or in the presence of 2.0 μM PiB, 10.0 μM PiB, 20.0 μM PiB, or 40.0 μM PiB. […] Infectivity was measured as GFP fluorescence via FACS. […]\nWe then examined effect of Pin blocking in non-human primate producer cells on viral infectivity. […] Infectivity was analyzed by GFP fluorescence via FACS. […]"}, "293T cells": {"system": "293T cells", "details": "cell count and trypan blue staining (data not shown)", "from_the_text": "To examine a potential role for Pin1 in HIV-1 replication we used two inhibitors of Pin1: juglone and PiB. […] 293T cells were transfected with a proviral construct encoding wild-type HIV-1 in the presence or absence of PiB or juglone."}, "Pin1 PPIase": {"target": "Pin1 PPIase (Homo sapiens, UniProt Q13526)", "sequence (Q13526 whole entry)": "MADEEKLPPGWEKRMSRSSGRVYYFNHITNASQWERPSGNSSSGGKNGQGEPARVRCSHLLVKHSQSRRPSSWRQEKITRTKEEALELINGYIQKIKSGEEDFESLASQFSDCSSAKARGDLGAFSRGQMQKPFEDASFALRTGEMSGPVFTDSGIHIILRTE", "details": "cited from earlier work"}, "[1]": {"system": "other prolyl isomerases such as CypA or FKBP", "details": "cited from earlier work"}, "[2]": {"details": "cited from earlier work"}}}
{"compound": "CCOC(=O)CN1C(=O)c2ccc3c4c(ccc(c24)C1=O)C(=O)N(CC(=O)OCC)C3=O", "note": "[PiB, diethyl-1,3,6,8-tetrahydro-1,3,6,8-tetraoxobenzo[lmn][3,8]phenanthroline-2,7-diacetate]", "values": [{"measurement": "boost of HIV-1-GFP infectivity", "setting": "HIV-1-GFP; produced in 293T with PiB, TZMb1 cells, % cells infected", "value": 3, "unit": "fold"}, {"measurement": "infectivity of HIV-1-GFP in primate target cell panel", "setting": "HIV-1-GFP; produced with PiB, TZM, OMK, sMAGI, Vero, CV-1 target cells", "value": "enhanced infectivity"}, {"measurement": "boost of HIV-GFP infectivity in OMK cells", "setting": "HIV-1-GFP; relative to control HIV-1 infectivity seen in sMAGI cells (no infection of OMK with control HIV-1)", "value": 400, "unit": "%"}, {"measurement": "infectivity of VSV-G pseudotyped macaque SIV-GFP", "setting": "SIV-GFP; produced in 293T with 2.0, 10.0, 20.0 or 40.0 μM PiB", "value": "enhanced infectivity in a dose dependent manner"}, {"measurement": "boost of SIV-GFP infectivity", "setting": "SIV-GFP; produced in 293T with PiB, TZMb1 cells", "value": 1.5, "unit": "fold"}, {"measurement": "infectivity of SIV produced in non-human primate cells", "setting": "SIV-GFP; sMAGI, Vero, CV-1 (b135 also OMK) producer cells, human TZM/reporter cells", "value": "enhanced infectivity"}, {"measurement": "producer cell viability", "setting": "293T cells", "value": "no effect"}, {"measurement": "IC50 of Pin1 PPIase activity in vitro", "setting": "Pin1 PPIase", "value": "low mM"}, {"measurement": "inhibition of other PPIase families (CypA, FKBP)", "setting": "[1]", "value": "do not inhibit"}, {"measurement": "stability at 37°", "setting": "[2]; 37°", "value": "instability"}, {"measurement": "stability in aqueous solution", "setting": "[2]; aqueous solution", "value": "breaks down in aqueous solution"}]}
